According to ChEMBL document CHEMBL1201862, “PubChem BioAssay data set” (2004):
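Assay format: 96-well plates, 48-hour exposure. GI50: concentration for 50% inhibition of growth.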 Calls of active or inactive are those of the source. Rule as the data show it: active = GI50 up to about 1.1 µM and inactive = higher.

Tests used:
Experiment in all cases: NCI anticancer screen, dose series, 48 h
[1] = test system: 786-0
[2] = test system: A498
[3] = test system: A549
[4] = test system: CAKI-1
[5] = test system: CCRF-CEM
[6] = test system: COLO 205
[7] = test system: HCT-116
[8] = test system: HOP-92
[9] = test system: Hs-578T
[10] = test system: M14
[11] = test system: MDA-MB-231
[12] = test system: MOLT-4
[13] = test system: NCI-H460
[14] = test system: OVCAR-5
[15] = test system: OVCAR-8
[16] = test system: SF-268
[17] = test system: SF-295
[18] = test system: TK-10
[19] = test system: UACC-257
[20] = test system: UO-31

Measured: GI50

COc1ccc(NC(=S)NNC(=O)c2cc(-c3ccccc3)nc3ccccc23)cc1
inactive: [1] 17.9 µM | [2] 14.3 µM | [3] 17.7 µM | [4] 23.4 µM | [5] 12.9 µM | [6] 31.8 µM | [7] 12.4 µM | [8] 10.6 µM | [9] 24 µM | [10] 15.4 µM | [11] 22.5 µM | [12] 19.7 µM | [13] 16.1 µM | [14] 20.8 µM | [15] 17.2 µM | [16] 26.1 µM | [17] 3.5 µM | [18] 15.8 µM | [19] 18.4 µM | [20] 11.4 µM

CCCOC(=O)c1cc(O)c(O)c(O)c1 [PROPYL GALLATE]
inactive: [1] 41.4 µM | [2] > 100 µM | [3] 27.2 µM | [4] > 100 µM | [5] > 100 µM | [6] > 100 µM | [7] 20.8 µM | [8] 60.4 µM | [9] 17.5 µM | [10] 20.8 µM | [11] 58.1 µM | [12] 5.83 µM | [13] 30.1 µM | [14] 49.9 µM | [15] 27.9 µM | [16] 27.7 µM | [17] 47.5 µM | [18] > 100 µM | [19] > 100 µM | [20] 8.95 µM

CC1C[C@]2(C)C(=O)Nc3ccccc3[C@@H]2Nc2ccccc21 (stereo not given in full)
inactive: [1] 22 µM | [2] 20.5 µM | [3] 25.1 µM | [4] 20.3 µM | [5] 30.5 µM | [6] 18.1 µM | [7] 16.1 µM | [8] 1.95 µM | [9] 20 µM | [10] 26.1 µM | [11] 16.3 µM | [12] 17.4 µM | [13] 28.1 µM | [14] 35.6 µM | [15] 14.8 µM | [16] 23.7 µM | [17] 31.6 µM | [18] 21.2 µM | [19] 15.6 µM | [20] 50 µM

NC(=O)C1CCN(Cc2c(Cl)c(Cl)c(CN3CCC(C(N)=O)CC3)c(Cl)c2Cl)CC1
inactive: [1] 77.1 µM | [2] 28.3 µM | [3] > 100 µM | [4] > 100 µM | [5] > 100 µM | [6] > 100 µM | [7] > 100 µM | [8] 67.1 µM | [9] 49.9 µM | [10] 86.3 µM | [11] 28.8 µM | [12] > 100 µM | [13] > 100 µM | [14] > 100 µM | [15] > 100 µM | [16] 44.7 µM | [17] 23.7 µM | [18] > 100 µM | [19] > 100 µM | [20] 63.5 µM
